Consider 8 molecules from ChEMBL document CHEMBL1157154, “The synthesis of 5-substituted ring E analogs of methyllycaconitine via the Suzuki-Miyaura cross-coupling reaction” (Bioorg Med Chem, 2008).

Each structure is given as a SMILES string.

Broadly, the IC50 is the concentration that inhibits the measured activity by half. A low value points to greater potency.

The target of assay [1] is Neuronal acetylcholine receptor subunit alpha-7 (Bos taurus) (UniProt P54131). Nature of the assay: Displacement of [125I]alpha-bungarotoxin from bovine alpha7 nAChR expressed in HEK293 cells at 10 uM. Format: cell-based. On the technique in general: Loss of bound radioactivity is the signal in a displacement assay; it reports binding, not function.
Neuronal acetylcholine receptor subunit alpha-7 (Bos taurus), sequence (P54131 whole entry): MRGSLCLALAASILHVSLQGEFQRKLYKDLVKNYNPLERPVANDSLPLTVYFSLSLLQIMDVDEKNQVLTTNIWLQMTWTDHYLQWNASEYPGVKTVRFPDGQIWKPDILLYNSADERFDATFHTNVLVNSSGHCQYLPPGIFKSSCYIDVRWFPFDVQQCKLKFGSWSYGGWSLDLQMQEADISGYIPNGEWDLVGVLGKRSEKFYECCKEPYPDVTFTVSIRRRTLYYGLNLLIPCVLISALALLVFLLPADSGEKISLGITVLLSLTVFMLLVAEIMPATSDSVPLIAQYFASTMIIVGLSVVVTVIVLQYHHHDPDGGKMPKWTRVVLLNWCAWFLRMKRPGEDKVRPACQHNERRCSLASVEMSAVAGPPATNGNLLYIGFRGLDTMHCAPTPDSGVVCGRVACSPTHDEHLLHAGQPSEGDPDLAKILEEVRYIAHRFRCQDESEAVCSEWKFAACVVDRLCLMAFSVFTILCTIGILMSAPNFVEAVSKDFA
Assay [2] in a line: Inhibition of nicotin-stimulated neurosecretion in bovine adrenal gland. Format: functional, tissue-based, Bos taurus, Adrenal tissue.
In assay [3] the target is Neuronal acetylcholine receptor subunit alpha-3 (Bos taurus) (UniProt Q07263). Nature of the assay: Displacement of [3H]epibatidine from bovine […] nAChR expressed in HEK293 cells at 10 uM. Format: cell-based.
Neuronal acetylcholine receptor subunit alpha-3 (Bos taurus), sequence (Q07263 whole entry): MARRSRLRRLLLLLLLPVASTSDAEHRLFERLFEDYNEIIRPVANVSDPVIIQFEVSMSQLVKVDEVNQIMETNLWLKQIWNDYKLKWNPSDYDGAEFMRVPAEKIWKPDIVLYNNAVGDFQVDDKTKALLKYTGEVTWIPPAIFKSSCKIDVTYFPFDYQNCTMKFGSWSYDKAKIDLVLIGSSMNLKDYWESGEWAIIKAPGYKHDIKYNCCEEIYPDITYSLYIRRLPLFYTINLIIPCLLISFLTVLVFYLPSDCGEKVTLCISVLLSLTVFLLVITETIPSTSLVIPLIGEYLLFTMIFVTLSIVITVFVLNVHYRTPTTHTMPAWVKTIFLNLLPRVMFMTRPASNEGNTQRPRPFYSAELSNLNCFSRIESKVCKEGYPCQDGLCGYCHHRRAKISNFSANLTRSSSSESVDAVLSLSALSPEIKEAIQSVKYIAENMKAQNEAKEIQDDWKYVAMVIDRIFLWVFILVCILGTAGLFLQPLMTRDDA
Assay [4] shares this target. Nature of the assay: Displacement of [3H]epibatidine from bovine […] nAChR expressed in HEK293 cells at 1.0 uM. Format: cell-based.
In assay [5] the target is Neuronal acetylcholine receptor subunit alpha-7 (Bos taurus) (UniProt P54131). Put plainly: Displacement of [125I]alpha-bungarotoxin from bovine alpha7 nAChR expressed in HEK293 cells at 1.0 uM. Format: cell-based.
Assay [6] deals with Neuronal acetylcholine receptor subunit alpha-7 (Bos taurus, UniProt P54131). Put plainly: Displacement of [125I]alpha-bungarotoxin from bovine alpha7 nAChR expressed in HEK293 cells. Format: cell-based.
Neuronal acetylcholine receptor subunit alpha-7, sequence (P54131 whole entry): as the sequence (P54131 whole entry) above

Turning to `CC1CC(=O)N(c2ccccc2C(=O)OC[C@@H]2C[C@H](CC3CCCCC3)CN(CCCc3ccccc3)C2)C1=O` (stereo not given in full), in assay [1], the Activity turned out to be 92.6%. Turning to `CC1CC(=O)N(c2ccccc2C(=O)OC[C@@H]2C[C@H](CCCCCO[Si](C)(C)C(C)(C)C)CN(CCCc3ccccc3)C2)C1=O` (stereo not given in full), in assay [2], the IC50 came to 2000 nM. Also, the Activity in assay [3] amounted to 118%; in assay [1], 88.8%. Regarding `CC1CC(=O)N(c2ccccc2C(=O)OC[C@@H]2C[C@H](c3ccccc3)CN(CCCc3ccccc3)C2)C1=O` (stereo not given in full), the Activity was 86.8% in assay [3] and 94.3% in assay [1]. On to `CC1CC(=O)N(c2ccccc2C(=O)OC[C@@H]2C[C@H](C3CCCCC3)CN(CCCc3ccccc3)C2)C1=O` (stereo not given in full), for which, in assay [1], the Activity came out at 103%. The molecule `CCCCCC[C@H]1C[C@@H](COC(=O)c2ccccc2N2C(=O)CC(C)C2=O)CN(CCCc2ccccc2)C1` (stereo not given in full) yielded an IC50 in assay [2] of 2000 nM. In addition, the Activity in assay [3] was 105%; in assay [1], 92.2%. For the molecule `CC1CC(=O)N(c2ccccc2C(=O)OC[C@@H]2C[C@H](CCc3ccccc3)CN(CCCc3ccccc3)C2)C1=O` (stereo not given in full), the Activity in assay [3] was determined as 103%; in assay [1] it was 98.8%. Regarding `CCN1C[C@]2(COC(=O)c3ccccc3N3C(=O)C[C@H](C)C3=O)CC[C@H](OC)[C@@]34[C@@H]5C[C@H]6[C@H](OC)[C@@H]5[C@](O)(C[C@@H]6OC)[C@](O)([C@@H](OC)[C@H]23)[C@@H]14`, the values for the Activity in assay [4] and in assay [5] were 50.1% and 7.5%, respectively.

In assay [6], `CC1CC(=O)N(c2ccccc2C(=O)OC[C@@H]2CCCN(CCCc3ccccc3)C2)C1=O` (stereo not given in full) had an IC50 of 177000 nM.
